From publication PMC11251990 (Frontiers in Pharmacology, 2024)

Key:
Type in all cases: biochemical
[1] = target: T1, dipeptidyl peptidase 1 (DPP1, cathepsin C) (Rattus norvegicus, UniProt P80067); experiment: fluorogenic H-Gly-Arg-AMC cleavage assay with recombinant enzyme
T1 construct: gene Ctsc; recombinant rat DPP1, proteolytically processed into mature form with cathepsin L

[2] = target: T2, dipeptidyl peptidase 1 (DPP1, cathepsin C) (Canis lupus, UniProt O97578); experiment: fluorogenic H-Gly-Arg-AMC cleavage assay in crude white blood cell lysate; conditions: read-out: DPP1 / Dog
T2 construct: gene CTSC; native DPP1 in dog white blood cell lysate
T2 sequence (O97578 1-109): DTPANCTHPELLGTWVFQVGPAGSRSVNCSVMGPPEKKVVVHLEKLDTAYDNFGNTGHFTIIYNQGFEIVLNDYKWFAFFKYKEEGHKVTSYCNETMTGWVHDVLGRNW
T2 sequence (O97578 200-435): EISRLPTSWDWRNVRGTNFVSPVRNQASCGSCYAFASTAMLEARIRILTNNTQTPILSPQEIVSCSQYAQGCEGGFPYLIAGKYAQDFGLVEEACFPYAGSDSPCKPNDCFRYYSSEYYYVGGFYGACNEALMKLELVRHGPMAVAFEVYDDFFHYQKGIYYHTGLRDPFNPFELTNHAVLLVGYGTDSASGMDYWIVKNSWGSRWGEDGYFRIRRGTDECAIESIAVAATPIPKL

[3] = target: T3, dipeptidyl peptidase 1 (DPP1, cathepsin C) (Mus musculus, UniProt P97821); experiment: fluorogenic H-Gly-Arg-AMC cleavage assay with recombinant enzyme
T3 construct: gene Ctsc; recombinant mouse DPP1
T3 sequence (P97821 25-134): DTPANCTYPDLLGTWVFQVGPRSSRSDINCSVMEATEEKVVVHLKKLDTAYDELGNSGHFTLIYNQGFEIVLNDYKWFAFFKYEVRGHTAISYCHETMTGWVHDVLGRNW
T3 sequence (P97821 231-462): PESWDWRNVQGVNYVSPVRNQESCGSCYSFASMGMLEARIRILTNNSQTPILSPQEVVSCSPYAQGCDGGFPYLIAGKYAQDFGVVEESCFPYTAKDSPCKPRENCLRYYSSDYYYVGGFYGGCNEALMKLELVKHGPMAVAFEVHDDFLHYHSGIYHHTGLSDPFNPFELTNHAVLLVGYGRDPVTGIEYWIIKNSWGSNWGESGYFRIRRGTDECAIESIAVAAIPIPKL

T1 sequence (P80067 25-134): as the sequence (P97821 25-134) above, with S23H, S24P, D27H, A35P, V42I, L54V, H59Y, R86K, H88S, T89R counted along it
T1 sequence (P80067 230-393): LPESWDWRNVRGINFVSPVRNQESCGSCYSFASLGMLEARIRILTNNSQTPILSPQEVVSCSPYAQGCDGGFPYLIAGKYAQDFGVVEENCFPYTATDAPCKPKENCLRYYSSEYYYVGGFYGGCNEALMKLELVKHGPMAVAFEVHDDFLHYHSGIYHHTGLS
T1 sequence (P80067 394-462): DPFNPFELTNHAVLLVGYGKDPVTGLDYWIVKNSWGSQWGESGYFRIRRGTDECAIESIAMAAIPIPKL

## Cn1c(=O)oc2ccc(-c3ccc(C[C@@H](C#N)NC(=O)[C@@H]4CNCCCO4)cc3)cc21 [brensocatib]
[1]
  IC50: 51.1 nM
[2]
  IC50: 38.1 nM
[3]
  IC50: 24.1 nM
